Type in all cases: in vivo, human
The subject of data set [1] is patient with painful rizarthrosis. In words: Example 6: injection into painful joint base before surgery for rizarthrosis, postoperative pain. How it is done:
A patient with painful rizarthrosis was scheduled for surgical treatment of the disease on week prior to the operation. the patient was injected with 1 ml of a physiological saline solution containing 0.9 mg capsaicin into the painful joint base without prior administration of local anesthetics. The massive pain was treated with ice packs and inter-muscular morphine.

Data set [2] has as its system patients with symptoms of frozen shoulders. Briefly: Example 4: intra-articular treatment before arthroscopic capsular release, pain and mobility. The method, then: A series of 3 patients with symptoms of frozen shoulders (VAS >6) for at least six month were scheduled for arthroscopic capsular release. All patients were treated with an intra-articular treatment with 2 micrograms of resiniferatoxin dissolved in 10 ml of physiological salt solution containing 4 mM Ca^2+ with immediate prior administration (2.5 and 15 minutes prior to resiniferatoxin) of a local anesthetic (5 ml 0.25% ropivacaine) at 29, 32 and 40 days preoperatively.
Thereafter pain regressed 2 weeks after injection to a level below VAS 3 in all patients. The postoperative pain treatment after capsulotomy included 5 days of regional continuous anesthesia.

Data set [3] deals with patients with transtendinous rotator cuff tears. Briefly: Example 3: subacromial injection 2 to 6 weeks before arthroscopic cuff repair, postoperative pain and mobility. How it is done: A series of 5 patients with a mean age 62 years and transtendinous rotator cuff tears and having been scheduled for arthroscopic cuff repair was 2 to 6 weeks (13 days for two patients and 16,23 and 41 days for the other three patients) preoperatively treated with a subacromial injection of 0.4 microgram resiniferatoxin dissolved in 10 ml 2% lidocaine.
Postinjection pain was controlled with ice packs and NSAIDS. The postoperative pain protocol included 48 hours of interscalene continuous regional anesthesia. Thereafter pain was exceptionally low (VAS <2) in four out of five patients.

Data set [4] concerns patient with symptomatic hallux valgus. Briefly: Example 5: intra-articular injection one month before hallux valgus surgery, postoperative pain. The following applies: 200 ng intra-articular one month preoperatively; 2 ml 2% Lidocaine 5 minutes prior; 1 patient. How it is done: A patient with symptomatic hallux valgus was scheduled for surgical treatment. One month preoperatively an intra articular injection 1 ml resiniferatoxin (200 ng) was administered into the interphalangeal join space with prior (5 minutes) periarticular anesthesia using 2 ml 2% Lidocaine.

The test system of data set [5] is patient with anterior cruciate ligament rupture with medial meniscal tear. In words: Example 2: intra-articular treatment 3 weeks before cruciate ligament and meniscal repair, postoperative pain and range of motion. The method, then:
A physiotherapist suffered a traumatic anterior cruciate ligament rupture with medial meniscal tear. Due to unacceptable symptoms of instability a surgical reconstruction was scheduled. During the waiting period for the operation 3 weeks preoperatively an intra-articular treatment with 2 micrograms of resiniferatoxin dissolved in Ringers lactate buffer at a concentration of 200 ng/ml with immediate prior administration (i.e. within 1 minute) of a local anesthetic (5 ml 0.5% bupivacaine) was applied.
Three weeks later a crucial ligament repair using patellar tendon autograft and arthroscopic meniscal repair was performed. Postoperative pain was restricted to the first 72 hours and below VAS 2 thereafter. Unexpectedly the passive range of motion was flex-extension of 130-0-0° 3 weeks after the operation and further improving thereafter with minimal (VAS 1) pain.

The subject of data set [6] is patient with hip osteoarthritis. In words: Example 1: intra-articular hip infiltration one month before total hip prosthesis, postoperative pain. How it is done:
A patient with hip osteoarthritis and pain for 2 years was not treatable anymore with conventional pain medication (NSAIDS, Paracetamol, opioids, etc.) or infiltration (corticosteroids, hyaluronic acid). Therefore the patient was treated with an infiltration into the hip joint under fluoroscopic control with 0.8 micrograms of Resiniferatoxin dissolved in 250 microliters of Ethanol and mixed with 5 ml buffer solution.
10 minutes prior to the injection a local anesthetic (5 ml lidocaine 2%) was applied under fluoroscopic control intra-articularly to prevent injection pain. Moderate post-injection pain after RTX was controlled with oral administration of morphine. One month later the patient still suffered from relevant impairment of hip mobility and peritrochanteric pain and was treated with implantation of a total hip prosthesis.

For the compound `COc1cc(CNC(=O)CCCC/C=C/C(C)C)ccc1O` [capsaicin], in data set [1] (0.9 mg in 1 ml saline without prior local anesthetics, treated with ice packs and morphine), the pain after injection result is recorded as “massive pain”. Moreover, in data set [1] (0.9 mg injected on(e) week prior to the operation, 1 patient), the postoperative pain entry is “almost no postoperative pain”.
For `C=C(C)[C@]12C[C@@H](C)[C@@]34O[C@](Cc5ccccc5)(O[C@@H]1[C@@H]3C=C(COC(=O)Cc1ccc(O)c(OC)c1)C[C@]1(O)C(=O)C(C)=C[C@@H]41)O2` [resiniferatoxin], the “pain level (VAS)” value in data set [2] (2 weeks after injection, before surgery, all 3 patients, 2 micrograms intra-articular with 4 mM Ca2+, 5 ml 0.25% ropivacaine prior, baseline VAS >6) was < 3 VAS. Besides, the “postoperative pain (VAS)” value in data set [2] (after 5 days of regional continuous anesthesia following capsulotomy, all patients) was < 3 VAS; in data set [3] (after 48 hours of interscalene regional anesthesia, in four out of five patients, 0.4 microgram in 10 ml 2% lidocaine subacromial), < 2 VAS; in data set [5] (after the first 72 hours), < 2 VAS; in data set [6] (first postoperative day) it was 5 VAS; in data set [6] (second postoperative day) it was 2 VAS. Further, the “maintenance of intraoperatively achieved mobility” value in data set [2] (after capsulotomy, all patients) is listed as “able to fully maintain their intraoperatively achieved mobility”. In addition, the “clinical signs of stiff or frozen shoulder” value in data set [3] (postoperative course up to 1 year follow up) is on record as “no clinical signs corresponding to a stiff or frozen shoulder were observed”. Further, in data set [3] (six weeks postoperatively), the glenohumeral abduction entry is “at least 80 °”. Further, the “pain upon passive external rotation” value in data set [3] (six weeks postoperatively, 5 patients) is reported as “none of the patients reported pain”. Also, the “passive external rotation, difference to contralateral side” value in data set [3] (six weeks postoperatively, all patients) is given as ≤ 15 °. Besides, in data set [4], the “need for pain medication after surgery” value is “did not need further pain medication after the second day after surgery”. In addition, in data set [5] (2 micrograms intra-articular 3 weeks preoperatively, 5 ml 0.5% bupivacaine immediately prior, 1 patient), the “duration of postoperative pain” value was ≤ 72 h. In addition, the “pain (VAS)” value in data set [5] (from 3 weeks after the operation, range of motion further improving) worked out at 1 VAS. In addition, the post-injection pain result in data set [6] (0.8 micrograms intra-articular hip, 5 ml lidocaine 2% 10 minutes prior, controlled with oral morphine) is recorded as “Moderate”. The “need for per oral pain medication” value in data set [6] (after second postoperative day) is “did not need any further per oral pain medication”. The pain reported thereafter result in data set [6] (after second postoperative day) was “virtually no pain”. Moreover, the postoperative pain entry in data set [6] (after total hip prosthesis one month after 0.8 micrograms infiltration, 1 patient) is “moderate to none”.

Source of the values: patent publication US20250248968A1, “COMPOSITION COMPRISING CAPSAICIN OR A CAPSACINOID” (MESTEX AG, priority 2019, published 2025).
